Here are results for four compounds from US20230043678A1, “USE OF 5-METHYLTETRAHYDROFOLATE” (priority 2019, published 2023).

Data set [1] has as its system zebrafish embryos.
Method: Transgenic zebrafish (fli-1:EGFP) were from the Model Animal Research Center of Nanjing University. Adult zebrafish aged less than 1 year were used for experiment and fed at a water pH value of 7±0.2, a temperature around 28° C. and a ratio of illumination to darkness of 14 h:10 h, and with Artemia salina eggs twice a day. Three zebrafish, one female, two males, were placed in a spawning box the night before and eggs were collected the next morning. Fish eggs were placed in an embryo culture medium (prepared with 0.2 g/L of sea salt) and cultured at 28° C.
Zebrafish embryos were cultured in 24-well plates with 10 embryos per well at 2 hpf in a dosing manner, drug solutions of the above concentrations in the table were separately added, termination was conducted at 8 hpf, and the embryos were washed and transferred to an egg solution for continuous culture to 72 hpf. Dead embryos were cleaned up in time. Each experiment was conducted in triplicate.
A phenotype of malformation was observed, the number of all abnormal zebrafish where the malformation was present was recorded and a malformation rate and a rescue rate of each group were calculated. Morphological defects, a heart rate, cardiac morphology and other indicators were observed and evaluated by an SMZ745T inverted stereomicroscope.
In data set [2] the test system is zebrafish embryos. Particulars: 30 mM HCHO.
Data set [3] concerns zebrafish embryos. This is another data set of the same source.
Method: Transgenic zebrafish (fli-1:EGFP) were from the Model Animal Research Center of Nanjing University. Adult zebrafish aged less than 1 were used for experiment and fed at a water pH value of 7±0.2, a temperature around 28° C. and a ratio of illumination to darkness of 14 h:10 h, and with Artemia salina eggs twice a day. Three zebrafish, one female, two males, were placed in a spawning box the night before and eggs were collected the next morning. Fish eggs were placed in an embryo culture medium (prepared with 0.2 g/L of sea salt) and cultured at 28° C. […] Dead embryos were cleaned up in time. A phenotype of malformation was observed, the number of all abnormal zebrafish where the malformation was present was recorded and a malformation rate and a rescue rate of each group were calculated. Morphological defects, a heart rate, cardiac morphology and other indicators were observed and evaluated by an SMZ745T inverted stereomicroscope.
Data set [4] relates to zebrafish embryos. As for the experimental part: A table was listed below for details.
5-Selected concentrations of methyltetrahydrofolate in the experiment were recorded in the table.
This is another data set of the same source.

Structures are written as SMILES. Like-named read-outs stand apart in the source and are kept apart here.

As to `CCO` [EtOH, ethanol], the survival rate result in the data set with zebrafish embryos [1] ([…] EtOH) is given as “significantly different from that of the control group”. Besides, in the data set on zebrafish embryos [1] (zebrafish, in vivo), the heart rate result was “led to a malformed phenotype of bradycardia in zebrafish embryos”, the “lower intestinal network blood vessels” value is on record as “led to developmental disorders of lower intestinal network blood vessels of the zebrafish” and the pericardium edema entry is given as “led to a malformed phenotype of pericardium edema in zebrafish embryos”.

Consider `C=O` [HCHO, formaldehyde], for which, in the data set on zebrafish embryos [2], the “lethality and teratogenicity to zebrafish” value is “lethal but not teratogenic to zebrafish”; the “pericardium edema and heart rate (48 hpf), body length (72 hpf)” value is “had no effect on the pericardium edema, the heart rate and the body length of the zebrafish”; the “survival rate of embryos” value is recorded as “severely lead to a low survival rate of embryos”. Also, the embryo development entry in the data set with zebrafish embryos [2] (8 hpf) was “delayed development of the zebrafish embryos”. In the data set with zebrafish embryos [2] (72 hpf), the “heart shape and lower intestinal network blood vessels” value is “normal heart shape and normal development of lower intestinal network blood vessels”.

In the case of `CN(Cc1cnc2nc(N)nc(N)c2n1)c1ccc(C(=O)N[C@@H](CCC(=O)O)C(=O)O)cc1` [MTX, methotrexate], in the data set on zebrafish embryos [3] (1.5 mM MTX), the “pericardium edema and 10 s heart rate (48 hpf), body length (72 hpf)” value was “seriously led to pericardium edema, bradycardia, and a shortened body length of zebrafish”. In addition, in the data set on zebrafish embryos [3] (1.5 mM MTX, 6-10 hpf), the “survival rate of embryos” value is “lower than 0.1”. Besides, the embryo phenotype entry in the data set with zebrafish embryos [3] (1.5 mM MTX, 24 hpf) is “led to hypoplasia and deformities such as small heads and short tails of zebrafish”; in the data set on zebrafish embryos [3] (1.5 mM MTX, 48 hpf), “led to body bending, intersegmental vascular hypoplasia and pericardium edema of zebrafish”; with zebrafish embryos [3] (1.5 mM MTX, 72 hpf) it was “led to a short body length and lower intestinal network vessel hypoplasia”. Also, the Malformation rate with zebrafish embryos [3] (MTX group (1.5 mM)) is recorded as 100%.

Consider `COc1cccc2c1cc([N+](=O)[O-])c1c(C(=O)O)cc3c(c12)OCO3` [aristolochic acid A], for which, in the data set with zebrafish embryos [4] (1-5 μM aristolochic acid A), the “pericardium edema and 10 s heart rate (48 hpf), body length (72 hpf)” value is “seriously led to pericardium edema, bradycardia, and a shortened body length in zebrafish”. The embryo phenotype result with zebrafish embryos [4] (1-5 μM aristolochic acid A, 8 hpf and 24 hpf) is “did not lead to obvious embryonic development delay, malformation and death”; in the data set with zebrafish embryos [4] (aristolochic acid A, 72 hpf) it was “showed a complete deficiency of development of the lower intestinal network blood vessels of the zebrafish”; in the data set on zebrafish embryos [4] (aristolochic acid A, increasing concentration, 48 hpf), “gradually showed pericardium edema, a slowed heart rate, curved bodies, a disappeared systemic blood flow, hematocele, yolk sac opacity”. For the same compound, the “survival rate of embryos” value with zebrafish embryos [4] (2-5 μM aristolochic acid A) is on record as “seriously reduce a survival rate of embryos”.
